Article PMC8678048 (Frontiers in Microbiology, 2021)
Where two headings read alike, the source gives them in different places. Positions of bridges follow the written chain, without caps; N, C: chain ends. Residues, ends and D or L forms follow the SMILES beside them.

What was measured:
[1] = test system: ASFV SY18 strain; assay type: cell-based, African swine fever virus
[2] = test system: human plasma (coagulation system); assay type: biochemical; conditions: pH 7.4
[3] = test system: thrombin; assay type: biochemical; conditions: 10μM
[4] = test system: Vero cells
[5] = test system: PAM cells

## CC[C@H](C)[C@@H]1NC(=O)CNC(=O)[C@H](CO)NC(=O)[C@@H]2CSSC[C@@H](C(=O)N[C@@H](Cc3ccc(O)cc3)C(=O)O)NC(=O)[C@H](CCCCN)NC(=O)[C@@H]3CSSC[C@H](NC(=O)[C@H](CCC(N)=O)NC(=O)[C@H](Cc4ccc(O)cc4)NC(=O)[C@H](CCC(N)=O)NC(=O)[C@H](CC(N)=O)NC(=O)[C@H](Cc4ccccc4)NC(=O)[C@@H]4CCCN4C(=O)[C@@H](NC(=O)CNC(=O)[C@H](Cc4ccc(O)cc4)NC(=O)CN)CSSC[C@H](NC(=O)[C@H](Cc4ccc(O)cc4)NC(=O)CNC(=O)CNC(=O)[C@H](CCCCN)NC(=O)[C@H](Cc4ccc(O)cc4)NC(=O)CNC(=O)[C@H](CCCNC(=N)N)NC1=O)C(=O)N[C@@H](CCCCN)C(=O)NCC(=O)N[C@@H]([C@@H](C)O)C(=O)N[C@@H](Cc1ccccc1)C(=O)N[C@@H](CCCCN)C(=O)N[C@@H](CCC(N)=O)C(=O)N[C@@H]([C@@H](C)O)C(=O)N3)C(=O)N[C@@H](Cc1c[nH]cn1)C(=O)N[C@@H](CO)C(=O)N[C@@H](Cc1c[nH]cn1)C(=O)N2 [OPTX-1] (H-GYGCPFNQYQCHSHCSGIRGYKGGYCKGTFKQTCKCY-OH; disulfide 4-26, 11-34, 15-36 (inferred); N-terminus and C-terminus assumed)
[1]; 5μM
  inhibition of ASFV infection/replication: inhibited ASFV infection in PAM cells
[1]; 10μM
  inhibition of ASFV infection/replication: inhibited ASFV infection in PAM cells
[2]
  anticoagulant effect (plasma recalcification time): show anticoagulant effects in plasma-based coagulation assays
[3]
  thrombin inhibitory effect: the activity of thrombin was inhibited
[4]
  cytotoxicity on Vero cells: less cytotoxicity on Vero cells than other defensins
  overall cytotoxicity (Vero and PAM cells): relative low cytotoxicities
[5]
  cytotoxicity on PAM cells: more significant than on Vero cells
